# Laboratory results reported in ChEMBL document CHEMBL1124272, “Only one pharmacophore is required for the kappa opioid antagonist selectivity of norbinaltorphimine” (J Med Chem, 1988).
# Tests used:
# [1] = molecular target: Mu-type opioid receptor (Cavia porcellus) (UniProt P97266); details: Ileum, 20 nM
# Description: Antagonistic activity at Opioid receptor mu 1 in electrically stimulated Guinea pig ileum using morphine as the agonist at 20 nM concentration
# [2] = molecular target: Kappa-type opioid receptor (Cavia porcellus) (UniProt P41144); details: Ileum, 20 nM
# Description: Antagonistic activity at Opioid receptor kappa 1 in electrically stimulated Guinea pig ileum using ethylketazocine as the agonist at 20 nM concentration
# [3] = molecular target: Delta-type opioid receptor (Homo sapiens) (UniProt P41143); details: Cavia porcellus; Ileum; 20 nM
# Delta-type opioid receptor (Homo sapiens), sequence (P41143 whole entry): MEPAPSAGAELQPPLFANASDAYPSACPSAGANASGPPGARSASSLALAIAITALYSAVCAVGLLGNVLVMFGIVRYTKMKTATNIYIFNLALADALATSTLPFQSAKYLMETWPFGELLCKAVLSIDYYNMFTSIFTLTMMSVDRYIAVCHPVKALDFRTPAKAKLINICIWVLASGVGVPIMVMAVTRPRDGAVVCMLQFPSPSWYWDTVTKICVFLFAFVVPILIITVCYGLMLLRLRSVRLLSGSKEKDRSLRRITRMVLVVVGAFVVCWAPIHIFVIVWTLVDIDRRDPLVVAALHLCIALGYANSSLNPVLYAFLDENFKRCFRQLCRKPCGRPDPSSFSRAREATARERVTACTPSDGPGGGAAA
# Description: Antagonistic activity at Opioid receptor delta 1 in electrically stimulated Guinea pig ileum using DADLE as the agonist at 20 nM concentration
# [4] = molecular target: Mu-type opioid receptor (Cavia porcellus) (UniProt P97266); details: Ileum, 100 nM
# Description: Antagonistic activity at Opioid receptor mu 1 in electrically stimulated Guinea pig ileum using morphine as the agonist at 100 nM
# [5] = molecular target: Delta-type opioid receptor (Homo sapiens) (UniProt P41143); details: Cavia porcellus; Ileum; 20 nM; remark: listed apart in the source
# Description: Antagonistic activity at Opioid receptor delta 1 in electrically stimulated Guinea pig ileum using DADLE as the agonist at 20 nM
# Mu-type opioid receptor (Cavia porcellus), sequence (P97266 whole entry): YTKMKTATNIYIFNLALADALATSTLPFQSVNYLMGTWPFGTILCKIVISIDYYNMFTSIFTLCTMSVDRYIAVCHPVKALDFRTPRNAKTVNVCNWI
# Kappa-type opioid receptor (Cavia porcellus), sequence (P41144 whole entry): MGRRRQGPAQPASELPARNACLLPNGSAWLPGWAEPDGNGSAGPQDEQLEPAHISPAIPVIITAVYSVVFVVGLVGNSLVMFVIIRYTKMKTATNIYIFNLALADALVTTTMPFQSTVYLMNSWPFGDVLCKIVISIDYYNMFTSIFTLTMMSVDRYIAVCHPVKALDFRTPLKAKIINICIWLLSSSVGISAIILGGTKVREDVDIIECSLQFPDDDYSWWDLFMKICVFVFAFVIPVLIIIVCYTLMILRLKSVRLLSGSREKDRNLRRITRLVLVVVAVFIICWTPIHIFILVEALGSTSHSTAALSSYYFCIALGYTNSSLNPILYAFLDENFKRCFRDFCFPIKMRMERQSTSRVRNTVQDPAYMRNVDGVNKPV
compound,measurement,setting,value
Oc1ccc2c3c1O[C@H]1c4[nH]c5c(c4C[C@@]4(O)[C@@H](C2)N(CC2CC2)CC[C@]314)C[C@]1(O)[C@@H]2Cc3ccc(O)c4c3[C@]1(CCN2CC1CC1)[C@@H]5O4,Ke,[1],1.1 nM
same,Ke,[2],0.08 nM
same,Ke,[3],1.3 nM
Oc1ccc2c3c1O[C@@H]1c4[nH]c5c(c4C[C@]4(O)[C@H](C2)N(CC2CC2)CC[C@@]314)C[C@]1(O)[C@@H]2Cc3ccc(O)c4c3[C@]1(CCN2CC1CC1)[C@@H]5O4,Ke,[4],77 nM
Oc1ccc2c3c1O[C@H]1c4[nH]c5c(c4C[C@@]4(O)[C@@H](C2)N(CC2CC2)CC[C@]314)C[C@@]1(O)[C@H]2Cc3ccc(O)c4c3[C@@]1(CCN2CC1CC1)[C@H]5O4,Ke,[5],10 nM
